According to patent publication US20060280725A1, “Compositions and methods of treating and diagnosing hepatoma” (priority 2003, published 2006):

Experiments:
[1] = test system: Hep3B, PLC/PRF/5, Focus and THLE-5B cell lines; assay: Amino acid inhibition analysis of Na+-dependent glutamine transport; type: cell-based, human; settings: for inhibition at 5000 µM: Homo sapiens, unlabeled amino acid at 5 mM, 50 μM L-glutamine, Hep3B, PLC/PRF/5, Focus, THLE-5B, read-out: inhibition of glutamine uptake
Procedure: (§1) FIG. 1. Amino acid inhibition analysis of glutamine transport in the Hep3B, PLC/PRF/5 and Focus human hepatoma cell lines and the THLE-5B SV40-immortalized human liver epithelial cell line. The Na^+-dependent transport of 50 μM L-glutamine was measured as described in the Methods section in the absence or presence of the indicated unlabeled amino acids at 5 mM. Testing of cysteine (CYSH) required the presence of 5 mM dithiothreitol (DTT) as a reducing agent, so DTT was tested alone as well. Arrows indicate the relative transport rates for 50 μM L-glutamine in primary human adult (solid arrow) and fetal (open arrow) hepatocytes. The results represent the average±SD of four separate determinations (*p<0.010 versus control). The Eadie-Hofstee plots of the kinetic analyses are shown as an inset in each figure, with the dashed lines representing the resolved high and low affinity components of the composite data (solid line). The derived values of the kinetic constants for each component are given in the Results section.
(§2) Glutamine Transport Assays. Measurement of initial-rate glutamine uptake was carried out via the cluster-tray method originally described by Gazzola (21) as reported previously (6, 9). Briefly, after trypsinization hepatoma cells were plated at a density of 1×10^5 cells/well in 24-well culture plates (Costar Corp., Cambridge, Mass.) and allowed to grow to >80% confluence, typically one to two days later. For initial-rate measurements, the radiotracer utilized was L-[G-^3H] glutamine (Amersham Corp., Arlington Heights, Ill.) at 4 μCi/ml, in the presence of unlabeled L-glutamine at 50 μM. For kinetic studies, the amount of unlabeled glutamine in the transport buffer varied from 10 μM to 10 mM. All transport measurements were carried out at 37° C. and were terminated after 30 s by three rapid washes with an ice-cold phosphate-buffered saline solution. Intracellular radiolabeled glutamine was extracted with 0.2 ml/well of 0.2% sodium dodecyl sulfate (SDS) and 0.2 N NaOH; after 1 h, 0.1 ml of the lysate was neutralized with 10 μl of 2 N HCl and subjected to scintillation spectrophotometry in a Packard TopCount™ (Packard Instruments, Meriden, Conn.). The remaining lysate was utilized for the determination of cellular protein by the bicinchoninic acid (BCA) method (Pierce Chemical Co., Rockford, Ill.). Rates of glutamine transport were calculated from the cpm per sample, the specific activity of the uptake mix (in cpm/nmol) and normalized to cellular protein content in a Microsoft Excel® spreadsheet program. Transport values obtained in the absence of extracellular Na^+ (diffusion and Na^+-independent uptake) were subtracted from those in the presence of Na^+ (total uptake) to yield Na^+-dependent rates which are reported in units of nmol•mg^−1 protein•30 s^−1. […]

[2] = test system: human fetal liver fibroblasts (HFLF); assay: Glutamine transport assay (inhibition and kinetic analysis); type: cell-based; settings: 5 mM, 50 μM L-glutamine
Procedure: FIG. 5. Functional and molecular assessment of ATB^0 expression in human fetal liver fibroblasts (HFLF) and cirrhotic liver tissue. A) Amino acid inhibition analysis of Na^+-dependent glutamine uptake in human fetal liver fibroblasts. Fibroblasts were isolated and cultured as described in the Methods section, and amino acid inhibition analysis of 50 μM L-glutamine uptake was carried out as described in FIG. 1. *p<0.010 vs. control. The Eadie-Hofstee plot of the kinetic analysis is shown as an inset, with the dashed lines representing the resolved high and low affinity components of the composite data (solid line). The derived values of the kinetic constants for each component are given in the Results section. B) Northern blot analysis of ATB^0 expression in HFLF. Radiolabeled cDNA probes were generated with the Megaprime™ kit as described in the Methods section, and hybridized to 20 μg of total RNA from HFLF. Exposure time was 24 h. C) RT-PCR and restriction enzyme analysis of ATB^0 expression in HFLF, normal and cirrhotic liver. The analysis was carried out exactly as described in FIG. 3. Omission of RT is shown for the normal liver sample. D) Expression of ATB^0 in biopsies from a patient with liver cirrhosis and hepatocellular carcinoma (HCC). Northern blot analysis of ATB^0 & SN1 expression were performed on RNA extracted from the snap-frozen biopsies. RNA isolation and northern blot analysis was carried out as described in the Methods section, with full-length riboprobes used for detection of transporter mRNA. Exposure times for the blots are shown to illustrate relative expression levels for ATB^0 in each of the samples.
as §2, with “s^−1. All transport values depicted are the average±standard deviation of four separate determinations. Kinetic analysis of Eadie-Hofstee linearized transport data (v vs. v/[L-GLN]) was performed by regression analysis (Cricket Graph®, Computer Associates, Islandia, N.Y.). Nonlinear regression analysis was performed with DataDesk (Data Description, Inc. Ithaca, N.Y.) and Excel for two component Michaelis-Menten kinetics: v=((Vmax1×[S])/(Km1+[S])+(Vmax2×[S])/(Km2+[S])).” for “s^−1.”

THLE-5B = assay: as above; type: cell-based, human; settings: 5 mM, 50 μM L-glutamine, p<0.050
Procedure: as §1
Glutamine Transport Assays. Measurement of initial-rate glutamine uptake was carried out via the cluster-tray method originally described by Gazzola (21) as reported previously (6, 9). Briefly, after trypsinization hepatoma cells were plated at a density of 1×10^5 cells/well in 24-well culture plates (Costar Corp., Cambridge, Mass.) and allowed to grow to >80% confluence, typically one to two days later. For initial-rate measurements, the radiotracer utilized was L-[G-^3H] glutamine (Amersham Corp., Arlington Heights, Ill.) at 4 μCi/ml, in the presence of unlabeled L-glutamine at 50 μM. For kinetic studies, the amount of unlabeled glutamine in the transport buffer varied from 10 μM to 10 mM. All transport measurements were carried out at 37° C. and were terminated after 30 s by three rapid washes with an ice-cold phosphate-buffered saline solution. Intracellular radiolabeled glutamine was extracted with 0.2 ml/well of 0.2% sodium dodecyl sulfate (SDS) and 0.2 N NaOH; after 1 h, 0.1 ml of the lysate was neutralized with 10 μl of 2 N HCl and subjected to scintillation spectrophotometry in a Packard TopCount™ (Packard Instruments, Meriden, Conn.). The remaining lysate was utilized for the determination of cellular protein by the bicinchoninic acid (BCA) method (Pierce Chemical Co., Rockford, Ill.). Rates of glutamine transport were calculated from the cpm per sample, the specific activity of the uptake mix (in cpm/nmol) and normalized to cellular protein content in a Microsoft Excel® spreadsheet program. Transport values obtained in the absence of extracellular Na^+ (diffusion and Na^+-independent uptake) were subtracted from those in the presence of Na^+ (total uptake) to yield Na^+-dependent rates which are reported in units of nmol•mg^−1 protein•30 s^−1. All transport values depicted are the average±standard deviation of four separate determinations. Kinetic analysis of Eadie-Hofstee linearized transport data (v vs. v/[L-GLN]) was performed by regression analysis (Cricket Graph®, Computer Associates, Islandia, N.Y.). Nonlinear regression analysis was performed with DataDesk (Data Description, Inc. Ithaca, N.Y.) and Excel for two component Michaelis-Menten kinetics: v=((Vmax1×[S])/(Km1+[S])+(Vmax2×[S])/(Km2+[S])).
It should be noted that extensive depletion of intracellular amino acid pools were not performed prior to transport measurements in these studies because we sought to assess glutamine uptake under more physiological conditions. […]

SK-Hep cells [3] = assay: Poly IC treatment of SK-Hep cells (growth, viability, apoptosis); type: cell-based, human
Procedure: Possible role of a PKR response in hepatoma apoptosis. Given the marked effect of induced ATB^0/ASCT2 antisense RNA expression on hepatoma viability and apoptosis, the possibility that the transporter knockdown response was a nonspecific double stranded RNA-dependent protein kinase (PKR) (62) mediated event was considered. To this end, cells were treated with Polyriboinosinic-polyribocytidylic acid (poly IC)—a mimic of double stranded RNA and stimulator of PKR in mammalian cells.
The mechanism leading from ATB^0/ASCT2 inhibition to apoptosis is unclear, but is currently being investigated. As we ruled out a nonspecific double stranded RNA (PKR) response (FIG. 14), we hypothesize that another cellular stress pathway links transporter suppression to apoptosis. Specifically, oxidative stress may be involved due to the likely loss of the antioxidant glutathione after diminution of its precursor glutamine (65, 66). PKR phosphorylates the α chain of the eukaryotic translation initiation factor eIF2 inhibiting the guanine nucleotide exchange factor eIF2B and turning off protein synthesis. In this respect, the selective expression of ATB^0/ASCT2 in cancerous versus normal human liver cells remains important since tumor-specific activation of PKR has recently been used to inhibit glioma growth in vivo [68]. […]

SK-Hep cells [4] = assay: Cellular quantification (hemacytometer cell number, viability); type: cell-based, human; settings: treatment with MFP
Procedure: FIG. 11. Effect of induced antisense RNA expression and glutamine deprivation on cellular proliferation and viability. Cultures of SK-Hep cells stably transfected with a 1.3 kb ATB^0 construct in the antisense orientation (Antisense 1-1) were treated at time zero with either inducer (FP, 10 nM), vehicle (ethanol, 0.1%) or maintained in the presence (+GLN) or absence (−GLN) of glutamine (DMEM+10% dialyzed FBS±2 mM L-GLN). At the indicated times thereafter, cell number was calculated after trypsmization and subsequent counting on a hemacytometer. The results represent the average±SD of five separate determinations. **p<0.010 versus-MFP. ††p<0.010 versus+GLN. […]
Cellular Quantification. Initial screens of the stably transfected sense and antisense ATB^0/ASCT2 clones to MFP induction utilized the colorimetric MTT (3-[4,5-Dimethylthiazol-2-yl]-2,5-diphenyltetrazolium bromide (Sigma)) assay as previously described (57), using a spectrophotometric plate reader at a wavelength of 562 nm (Bio-Tek EL311SX, Winooski, Vt.). The absorbance is considered to be directly proportional to the number of metabolically active mitochondria, and by extension, the number of cells. In subsequent studies, cell number was quantified directly. At specific times after experimental treatment (±MFP or ±glutamine), cells were removed from the culture dish via trypsinization and quantified on a hemacytometer. […]

SK-Hep cells [5] = assay: Na+-dependent glutamine transport assay in SK-Hep cells and transfected clones; type: cell-based, human; settings: SK-Hep parent cells
Procedure: FIG. 10. Effect of induced ATB0/ASCT2 antisense RNA expression on Na^+-dependent glutamine uptake. Cultures of the SK-Hep parent cell line and SK-Hep cells stably transfected with a 1.3 kb ATB^0 construct in the sense orientation (Sense 2-1) or antisense orientation (Antisense 1-1) were treated with inducer (MFP, 10 nM) or vehicle (ethanol, 0.1%) at time zero. At the indicated times thereafter, the initial rate (30 s) Na^+-dependent transport velocity of 50 μM L-glutamine was measured by radiotracer analysis as described in the methods section. The results represent the average±SD of four separate determinations. *p<0.050 versus control. **p<0.010 versus control.
Glutamine Transport Assays. Measurement of initial-rate Na^+-dependent glutamine uptake was performed by radiotracer analysis using the cluster tray method described in detail previously (57). Initial rate transport velocities are expressed as the average±SD of at least four separate determinations. The transport data was analyzed for significant differences using a t-test with a p<0.050 considered significant.
Inpact of antisense ATB^0/ASCT2 RNA on glutamine transport rates. In order to determine the functional effect of targeting ATB^0/ASCT2 mRNA, glutamine transport rates were measured.

Compound | inhibition at 5000 µM [1] [%] | inhibition of Na+-dependent glutamine uptake [2] | further results
N[C@@H](CO)C(=O)O [serine, reference compound] | > 80 | marked inhibition | –
CNC(C)(C)C(=O)O [MeAIB, alpha-(methylamino)isobutyric acid, reference compound] | – | not | diminished glutamine uptake (THLE-5B): 29%; inhibition of glutamine uptake ([1]; 5 mM, all cell lines except THLE-5B): failed to significantly inhibit glutamine uptake
C[C@H](N)C(=O)O [alanine, reference compound] | > 80 | marked inhibition | –
Polyriboinosinic-polyribocytidylic acid [poly IC] | – | – | apoptotic response in SK-Hep cells (SK-Hep cells [3]): failed to elicit the apoptotic response; growth or viability of SK-Hep cells (SK-Hep cells [3]): failed to impact growth or viability
CC#C[C@]1(O)CC[C@H]2[C@@H]3CCC4=CC(=O)CCC4=C3[C@@H](c3ccc(N(C)C)cc3)C[C@@]21C [MFP, mifepristone] | – | – | growth of the SK-Hep parent cell line (SK-Hep cells [4]): unaffected; decrease in glutamine transport rates (SK-Hep cells [5]; 14 h MFP 10 nM, p<0.050, not reproduced in subsequent studies): 23%; decrease in glutamine transport rates (SK-Hep cells [5]; 24 h MFP): not observed
N[C@@H](CS)C(=O)O [cysteine, reference compound] | > 80 | marked inhibition | –
